Tests used:
Bl6 and HAB mice = assay: Elevated plus maze (EPM) after intranasal NPS; format: in vivo, mouse
Description: Behavioural tests (open field, dark-light test and elevated plus maze (EPM)) following intranasal NPS application were performed sequentially. Each test lasted for 5 min with an inter-test interval of 5 min, as described previously (Bunck et al., 2009; Krömer et al., 2005). The animals' behaviour during testing was videotaped and relevant parameters were analysed with the tracking software ANY-maze version 4.30 (Stoelting, Wood Dale, Ill., USA). Native NPS (1 μg/μL) or vehicle (Ringer solution) were administered intranasally to the alert mouse as described above (total volume: 14 μL). Mice were tested 30 min and 4 hrs after intranasal administration of first drop. Animals were sacrificed 24 hrs after treatment and prefrontal cortex and bilateral hippocampi were prepared immediately and shock-frozen in methylbutane.
After having ascertained that nasally administered NPS reaches its target cells, anxiolytic effects of NPS were established for this transnasal delivery method. For this purpose, nasally 6.36 nmol NPS per mouse was administered to two mouse strains, Bl6 and HAB (high anxiety behaviour) mice. HAB animals, a mouse strain inbred for pathologically high anxiety, were chosen together with Bl6 mice to allow differentiation between the temporary condition of state anxiety and the general condition of trait anxiety (Bunck et al., 2009; Kromer et al., 2005). To accurately characterise the anxiety-relieving properties of NPS in these two mouse strains, three standardised behavioural assays measuring anxiolytic effects at two different time points after intranasal NPS administration were performed. In each test, the effects of intranasal NPS versus vehicle treatment on both anxiety- and locomotion-related indices were examined.

NPSR [1] = details: cited from earlier work
NPSR [2] = molecular target: T1, NPSR (Mus musculus, UniProt Q8BZP8); details: rodents, ICV injection, US 2010/0056455; cited from earlier work
T1 construct: host or cells: rodent brain in vivo
T1 sequence (Q8BZP8 1-371): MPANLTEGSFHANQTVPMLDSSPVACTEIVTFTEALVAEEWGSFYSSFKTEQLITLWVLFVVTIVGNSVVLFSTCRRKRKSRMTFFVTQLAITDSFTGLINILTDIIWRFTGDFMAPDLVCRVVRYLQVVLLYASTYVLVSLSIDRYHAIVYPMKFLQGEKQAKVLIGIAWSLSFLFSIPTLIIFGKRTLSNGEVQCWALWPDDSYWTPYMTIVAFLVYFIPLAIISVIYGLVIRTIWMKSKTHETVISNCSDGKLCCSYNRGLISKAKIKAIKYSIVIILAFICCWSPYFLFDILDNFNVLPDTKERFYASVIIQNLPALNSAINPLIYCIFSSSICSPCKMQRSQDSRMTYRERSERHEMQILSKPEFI

In the case of “neuropeptide S (SFRNGVGSGVKKTSFRRAKQ; Neuropeptide S; UniProt P0C0P7 70-89, looked up) [NPS, peptide agonist of neuropeptide S receptor (NPSR); native NPS, rat, from Bachem]”, the “behavioural differences versus vehicle in EPM” value (Bl6 and HAB mice; Bl6 and HAB mice, intranasal 6.36 nmol per mouse, 30 min) is reported as “no behavioural differences”, the “time on the open arms” value (Bl6 and HAB mice; Bl6 mice, intranasal, 4 hrs) is reported as “significantly increased” and the “total number of entries” value (Bl6 and HAB mice; Bl6 mice, intranasal, 4 hrs) is reported as “no difference”. For the same substance, the “any parameter tested in the EPM” value (Bl6 and HAB mice; HAB mice, intranasal, 4 hrs) was “no differences”, the “response of NPSR-KO mice to NPS treatment” value (NPSR [1]; NPSR-KO mice, Duangdao et al., 2009) was “resistant” and the anxiolytic effects (NPSR [1]; rodents, intracerebral and ICV injection) was “strong anxiolytic effects”. The “locomotor activity and wakefulness” value (NPSR [2]) was “increased locomotor activity and wakefulness”.
